Source: patent EP2269977B1, “Inhibitors of the 11-beta-hydroxysteroid dehydrogenase Type 1 enzyme” (AbbVie Inc., priority 2005, dated 2006)

Tests used:
[1] = Metabolic stability screen in human liver microsomes; type: in vitro ADME; details: substrate 10 µM, microsomal protein 0.1- 0.5 mg/ml, 1mM NADPH, pH 7.4, 37°C, 30 min incubation, LC/MS, read-out: Human Liver Microsomal Turnover
Procedure: (§1) Metabolic stability screen: each substrate (10 µM) was incubated with microsomal protein (0.1- 0.5 mg/ml) in 50mM potassium phosphate buffer (pH 7.4) in 48-Well plate. The enzyme reaction was initiated by the addition of 1mM NADPH, then incubated at 37°C in a Forma Scientific incubator (Marietta, OH, USA) with gentle shaking. The reactions were quenched by the addition of 800 µl of ACN/MeOH (1:1, v/v), containing 0.5 µM of internal standard (IS), after 30 min incubation. Samples were then filtered by using Captiva 96-Well Filtration (Varian, Lake Forest, CA, USA) and analyzed by LC/MS (mass spectrometry). Liver microsomal incubations were conducted in duplicate.
(§2) The parent remaining in the incubation mixture was determined by LC/MS. […] A Luna C8(2) (50 x 2.0 mm, particle size 3 µm, Phenomenex, Torrance, CA, USA) was used to quantify each compound at ambient temperature. […]
(§3) The peak area ratios (each substrate over IS) at each incubation time were expressed as the percentage of the ratios (each substrate over IS) of the control samples (0 min incubation). The parent remaining in the incubation mixture was expressed as the percentage of the values at 0 min incubation. The percentage turnover is calculated using the following equation (%turnover =[…] - %parent remaining) and is recorded as the percentage turnover in the Table 2. […]

[2] = Metabolic stability screen in mouse liver microsomes; type: in vitro ADME; details: substrate 10 µM, microsomal protein 0.1- 0.5 mg/ml, 1mM NADPH, pH 7.4, 37°C, 30 min incubation, LC/MS, read-out: Mouse Liver Microsomal Turnover
Procedure: as §1, §2, §3

CC(C)(Oc1ccc(Cl)cc1)C(=O)NC1C2CC3CC(C2)CC1C3 (centres unmarked) [EE, N-adamantan-2-yl-2-(4-chloro-phenoxy)-2-methyl-propionamide]
metabolised at 0.5 h, 10 µM [1]: 88%
metabolised at 0.5 h, 10 µM [2]: 86%
